In the experiment the test system is Caco-2. Kind of experiment: cells. To be noted: Homo sapiens, Caco-2, read-out: INH.

Description: Inhibition of cell invasion of human Caco2 cells at 100 nM by cell invasion assay

`CN(C)c1cccc2c(S(=O)(=O)N3CCCN(C4(c5ccc(Oc6ccccc6)cc5)C(=O)NC(=O)NC4=O)CC3)cccc12`: the inhibition at 0.1 µM was 20.1%.

The values above are taken from ChEMBL document CHEMBL1811810, “N-substituted homopiperazine barbiturates as gelatinase inhibitors” (Bioorg Med Chem, 2011).
